Molecular target: T1, PlzD
T1 construct: His-tagged PlzD (aot11_00285, strain ATCC27562), expressed in E. coli BL21(DE3)
Assay: micro-equilibrium dialysis with UV absorbance at […] nm, purified protein
Format: binding, Vibrio vulnificus

Nc1nc2c(ncn2[C@@H]2O[C@@H]3COP(=O)(O)O[C@H]4[C@@H](O)[C@H](n5cnc6c(=O)[nH]c(N)nc65)O[C@@H]4COP(=O)(O)O[C@H]3[C@H]2O)c(=O)[nH]1 [c-di-GMP]
Kd: 3.9 µM

Source: PMC10653909, “PlzD modifies Vibrio vulnificus foraging behavior and virulence in response to elevated c-di-GMP” (mBio, 2023)
